The labels stand for the following.
B1: outer-arm dynein intermediate chain IC2 (natural protein, T. thermophila, UniProt I7M008 1-667, looked up)
chain: MPPKQTKVVASRKTVMPISRAGRAQIRRKDSNTQNNMNDQGMEDEEIDQQREGMKNQYEQLTAQELNEDMPSKMLEPKNPQAPKNITVYDYYTRKFKTDELVDQMIVHFSMDGDYIWKESNEYKTQEEIRDTKKALIKEAMRKQESEEPGANHDEEAIKQTLRNKFNYNTRECQTINPSIRERGVSTEPPPSDTICGNITQWEIFDAYYAEIMKDHQIENKKKKEVDQDKKQDQSMYSTSFKRCCKIMERMVVQNDQEDKYHDYRYYWSQGDNLEAGKNEGHLLPIWRFSNEKQRKKNVTSICWNPLYPDLFAVSLGSYDFTKQRMGLICLYSLKNTTHPEYAFNCEAGVMCLDFHPKSAALLAVGLYDGTVLVYDIRNKHKKPIYQSTVRNQKHTDPVWQVKWNPDTSKNYNFYSISSDGRVMNWILMKNKLEPEEVILLRLVGKNEEESTLIGLACGLCFDFNKFEPHIFLVGTEEGKIHKCSRAYSGQYQETYNGHLLAVYKVKWNNFHPRTFISASADWTVRIWDSKYTSQIICFDLSMMVVDAVWAPYSSTVFACATMDKVQVYDLNVDKLNKLAEQKIVKQPKLTNLSFNYKDPILLVGDSHGGVTLVKLSPNLCKSGPEIKQTEDKKAMEEFKNVKIEDYEREKMENLLAVVSKWEREDA
notes: outer-arm dynein intermediate chain 2, T. thermophila, native subunit; source: purified from T. thermophila cilia as a subunit of native OAD (high salt extraction, sucrose gradient, ion exchange)
B2: Tctex-b (LC2A) (natural protein, T. thermophila, UniProt C0HME8 1-132, looked up)
chain: MKGTYLYLNIYKRKREASLITLNYIKNRFYPSKIQKIIKELFEDRLKGVEYDPNNANQLSERLVLELREKIKRGKVPRYKIGVQVVFGEIKGQGLRIASKCLWDVQNDNYASYTYTSEKVYCTGIVFGCYFE
notes: light chain LC2A, the best hit for the Tctex-b position, T. thermophila; source: purified from T. thermophila cilia as a subunit of native OAD (high salt extraction, sucrose gradient, ion exchange)

In test [1] the target is T1, γ-HC (γ-motor domain) of T. thermophila OAD (Tetrahymena thermophila, UniProt I7M6H4).
T1 construct: gene TTHERM_00486600; from cilia
Description: cryo-EM structure of OAD-MTD array. In kind it is binding. To be noted: Mg2+, no nucleotide added (apo state, co-purified).

For test [2], the target named is T2, β-HC (β-motor domain) of T. thermophila OAD (Tetrahymena thermophila, UniProt I7M9J2).
T2 construct: gene TTHERM_00499300; from cilia
Description: cryo-EM structure of OAD-MTD array. In kind it is binding. To be noted: Mg2+, no nucleotide added (apo state, co-purified).

The target in test [3] is T3, α-HC (α-motor domain) of T. thermophila OAD (Tetrahymena thermophila, UniProt Q22A67).
T3 construct: gene TTHERM_01276420; from cilia
Briefly: cryo-EM structure of OAD-MTD array. In kind it is binding. The settings on record: Mg2+, no nucleotide added (apo state, co-purified).

Test [4] concerns the target T4, outer-arm dynein (OAD) (Tetrahymena thermophila, UniProt I7M6H4+I7M9J2+Q22A67).
T4 construct: gene TTHERM_01276420; native OAD, high-salt extract of axonemes, sucrose gradient and ion exchange; not cross-linked; with Dynein intermediate chain 2; Dynein intermediate chain 3; Dynein light chain LC7-a (LC7A homolog); Dynein light chain LC7B; Dynein light chain LC10; Dynein light chain DLC82; Dynein light chain LC8E; Dynein light chain LC8-2b; Dynein light chain LC8-3a; Dynein light chain LC8-3b; Dynein light chain Tctex-a; Dynein light chain LC2A; Dynein light chain LC4A; Dynein light chain LC3BL; Dynein light chain 1
Description: negative-stain EM of OAD coverage on MTD; microtubule gliding assay. The format is biochemical. The settings on record: 1 mM ATP; 45 nM OAD; 20 mM HEPES pH 7.4, 100 mM KCl, 5 mM MgSO4, 1 mM DTT.

Test [5] has as its target T4, outer-arm dynein (OAD). Description: negative-stain EM count of OAD array length / coverage on MTD. In kind it is biochemical. To be noted: 10 to 1,000 μM ATPγS; slowly hydrolysed; 45 nM OAD; 20 mM HEPES pH 7.4, 100 mM KCl, 5 mM MgSO4, 1 mM DTT.
Test [6] concerns the target T5, outer-arm dynein intermediate chain IC3 (T. thermophila, UniProt Q23FU1 1-670).
T5 construct: outer-arm dynein intermediate chain 3, T. thermophila, native subunit; source: purified from T. thermophila cilia as a subunit of native OAD (high salt extraction, sucrose gradient, ion exchange)
T5 sequence (looked up): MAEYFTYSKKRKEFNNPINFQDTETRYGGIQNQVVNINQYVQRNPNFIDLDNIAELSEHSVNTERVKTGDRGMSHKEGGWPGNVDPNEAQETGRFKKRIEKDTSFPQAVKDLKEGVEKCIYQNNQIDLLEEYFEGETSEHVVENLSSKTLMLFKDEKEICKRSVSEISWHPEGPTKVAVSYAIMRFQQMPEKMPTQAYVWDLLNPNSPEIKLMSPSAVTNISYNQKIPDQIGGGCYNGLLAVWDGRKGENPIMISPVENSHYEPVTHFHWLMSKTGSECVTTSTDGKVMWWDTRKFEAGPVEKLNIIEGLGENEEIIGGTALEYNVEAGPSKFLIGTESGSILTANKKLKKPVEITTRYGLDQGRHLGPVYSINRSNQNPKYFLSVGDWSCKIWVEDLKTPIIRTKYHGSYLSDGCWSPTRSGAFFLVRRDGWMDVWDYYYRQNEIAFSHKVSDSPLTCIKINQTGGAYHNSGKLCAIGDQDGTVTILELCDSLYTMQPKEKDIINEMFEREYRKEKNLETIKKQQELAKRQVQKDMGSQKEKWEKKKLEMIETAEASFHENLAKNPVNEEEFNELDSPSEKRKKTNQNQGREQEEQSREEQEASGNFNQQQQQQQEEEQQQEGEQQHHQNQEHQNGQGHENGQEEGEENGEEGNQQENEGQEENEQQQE
Briefly: cryo-EM structure; freshly purified native OAD (not cross-linked) reconstituted on MTD in 20 mM HEPES pH 7.4, 100 mM KCl, 5 mM MgSO4, 1 mM DTT, on ice 45 min; apo state, no docking complex; two classes MTBS-1 and MTBS-2; MTD lattice refined from the same data. To be noted: both partners purified.

Test [7] concerns the target B1. Described as above. The settings on record: both partners purified.
The mark [8] stands for this setting: sites AAA3 and AAA4 (same state as β-HC).

The results in this text go back to publication PMC8500839, “Structures of outer-arm dynein array on microtubule doublet reveal a motor coordination mechanism” (Nature Structural & Molecular Biology, 2021).

T3 sequence (Q22A67 1-4620): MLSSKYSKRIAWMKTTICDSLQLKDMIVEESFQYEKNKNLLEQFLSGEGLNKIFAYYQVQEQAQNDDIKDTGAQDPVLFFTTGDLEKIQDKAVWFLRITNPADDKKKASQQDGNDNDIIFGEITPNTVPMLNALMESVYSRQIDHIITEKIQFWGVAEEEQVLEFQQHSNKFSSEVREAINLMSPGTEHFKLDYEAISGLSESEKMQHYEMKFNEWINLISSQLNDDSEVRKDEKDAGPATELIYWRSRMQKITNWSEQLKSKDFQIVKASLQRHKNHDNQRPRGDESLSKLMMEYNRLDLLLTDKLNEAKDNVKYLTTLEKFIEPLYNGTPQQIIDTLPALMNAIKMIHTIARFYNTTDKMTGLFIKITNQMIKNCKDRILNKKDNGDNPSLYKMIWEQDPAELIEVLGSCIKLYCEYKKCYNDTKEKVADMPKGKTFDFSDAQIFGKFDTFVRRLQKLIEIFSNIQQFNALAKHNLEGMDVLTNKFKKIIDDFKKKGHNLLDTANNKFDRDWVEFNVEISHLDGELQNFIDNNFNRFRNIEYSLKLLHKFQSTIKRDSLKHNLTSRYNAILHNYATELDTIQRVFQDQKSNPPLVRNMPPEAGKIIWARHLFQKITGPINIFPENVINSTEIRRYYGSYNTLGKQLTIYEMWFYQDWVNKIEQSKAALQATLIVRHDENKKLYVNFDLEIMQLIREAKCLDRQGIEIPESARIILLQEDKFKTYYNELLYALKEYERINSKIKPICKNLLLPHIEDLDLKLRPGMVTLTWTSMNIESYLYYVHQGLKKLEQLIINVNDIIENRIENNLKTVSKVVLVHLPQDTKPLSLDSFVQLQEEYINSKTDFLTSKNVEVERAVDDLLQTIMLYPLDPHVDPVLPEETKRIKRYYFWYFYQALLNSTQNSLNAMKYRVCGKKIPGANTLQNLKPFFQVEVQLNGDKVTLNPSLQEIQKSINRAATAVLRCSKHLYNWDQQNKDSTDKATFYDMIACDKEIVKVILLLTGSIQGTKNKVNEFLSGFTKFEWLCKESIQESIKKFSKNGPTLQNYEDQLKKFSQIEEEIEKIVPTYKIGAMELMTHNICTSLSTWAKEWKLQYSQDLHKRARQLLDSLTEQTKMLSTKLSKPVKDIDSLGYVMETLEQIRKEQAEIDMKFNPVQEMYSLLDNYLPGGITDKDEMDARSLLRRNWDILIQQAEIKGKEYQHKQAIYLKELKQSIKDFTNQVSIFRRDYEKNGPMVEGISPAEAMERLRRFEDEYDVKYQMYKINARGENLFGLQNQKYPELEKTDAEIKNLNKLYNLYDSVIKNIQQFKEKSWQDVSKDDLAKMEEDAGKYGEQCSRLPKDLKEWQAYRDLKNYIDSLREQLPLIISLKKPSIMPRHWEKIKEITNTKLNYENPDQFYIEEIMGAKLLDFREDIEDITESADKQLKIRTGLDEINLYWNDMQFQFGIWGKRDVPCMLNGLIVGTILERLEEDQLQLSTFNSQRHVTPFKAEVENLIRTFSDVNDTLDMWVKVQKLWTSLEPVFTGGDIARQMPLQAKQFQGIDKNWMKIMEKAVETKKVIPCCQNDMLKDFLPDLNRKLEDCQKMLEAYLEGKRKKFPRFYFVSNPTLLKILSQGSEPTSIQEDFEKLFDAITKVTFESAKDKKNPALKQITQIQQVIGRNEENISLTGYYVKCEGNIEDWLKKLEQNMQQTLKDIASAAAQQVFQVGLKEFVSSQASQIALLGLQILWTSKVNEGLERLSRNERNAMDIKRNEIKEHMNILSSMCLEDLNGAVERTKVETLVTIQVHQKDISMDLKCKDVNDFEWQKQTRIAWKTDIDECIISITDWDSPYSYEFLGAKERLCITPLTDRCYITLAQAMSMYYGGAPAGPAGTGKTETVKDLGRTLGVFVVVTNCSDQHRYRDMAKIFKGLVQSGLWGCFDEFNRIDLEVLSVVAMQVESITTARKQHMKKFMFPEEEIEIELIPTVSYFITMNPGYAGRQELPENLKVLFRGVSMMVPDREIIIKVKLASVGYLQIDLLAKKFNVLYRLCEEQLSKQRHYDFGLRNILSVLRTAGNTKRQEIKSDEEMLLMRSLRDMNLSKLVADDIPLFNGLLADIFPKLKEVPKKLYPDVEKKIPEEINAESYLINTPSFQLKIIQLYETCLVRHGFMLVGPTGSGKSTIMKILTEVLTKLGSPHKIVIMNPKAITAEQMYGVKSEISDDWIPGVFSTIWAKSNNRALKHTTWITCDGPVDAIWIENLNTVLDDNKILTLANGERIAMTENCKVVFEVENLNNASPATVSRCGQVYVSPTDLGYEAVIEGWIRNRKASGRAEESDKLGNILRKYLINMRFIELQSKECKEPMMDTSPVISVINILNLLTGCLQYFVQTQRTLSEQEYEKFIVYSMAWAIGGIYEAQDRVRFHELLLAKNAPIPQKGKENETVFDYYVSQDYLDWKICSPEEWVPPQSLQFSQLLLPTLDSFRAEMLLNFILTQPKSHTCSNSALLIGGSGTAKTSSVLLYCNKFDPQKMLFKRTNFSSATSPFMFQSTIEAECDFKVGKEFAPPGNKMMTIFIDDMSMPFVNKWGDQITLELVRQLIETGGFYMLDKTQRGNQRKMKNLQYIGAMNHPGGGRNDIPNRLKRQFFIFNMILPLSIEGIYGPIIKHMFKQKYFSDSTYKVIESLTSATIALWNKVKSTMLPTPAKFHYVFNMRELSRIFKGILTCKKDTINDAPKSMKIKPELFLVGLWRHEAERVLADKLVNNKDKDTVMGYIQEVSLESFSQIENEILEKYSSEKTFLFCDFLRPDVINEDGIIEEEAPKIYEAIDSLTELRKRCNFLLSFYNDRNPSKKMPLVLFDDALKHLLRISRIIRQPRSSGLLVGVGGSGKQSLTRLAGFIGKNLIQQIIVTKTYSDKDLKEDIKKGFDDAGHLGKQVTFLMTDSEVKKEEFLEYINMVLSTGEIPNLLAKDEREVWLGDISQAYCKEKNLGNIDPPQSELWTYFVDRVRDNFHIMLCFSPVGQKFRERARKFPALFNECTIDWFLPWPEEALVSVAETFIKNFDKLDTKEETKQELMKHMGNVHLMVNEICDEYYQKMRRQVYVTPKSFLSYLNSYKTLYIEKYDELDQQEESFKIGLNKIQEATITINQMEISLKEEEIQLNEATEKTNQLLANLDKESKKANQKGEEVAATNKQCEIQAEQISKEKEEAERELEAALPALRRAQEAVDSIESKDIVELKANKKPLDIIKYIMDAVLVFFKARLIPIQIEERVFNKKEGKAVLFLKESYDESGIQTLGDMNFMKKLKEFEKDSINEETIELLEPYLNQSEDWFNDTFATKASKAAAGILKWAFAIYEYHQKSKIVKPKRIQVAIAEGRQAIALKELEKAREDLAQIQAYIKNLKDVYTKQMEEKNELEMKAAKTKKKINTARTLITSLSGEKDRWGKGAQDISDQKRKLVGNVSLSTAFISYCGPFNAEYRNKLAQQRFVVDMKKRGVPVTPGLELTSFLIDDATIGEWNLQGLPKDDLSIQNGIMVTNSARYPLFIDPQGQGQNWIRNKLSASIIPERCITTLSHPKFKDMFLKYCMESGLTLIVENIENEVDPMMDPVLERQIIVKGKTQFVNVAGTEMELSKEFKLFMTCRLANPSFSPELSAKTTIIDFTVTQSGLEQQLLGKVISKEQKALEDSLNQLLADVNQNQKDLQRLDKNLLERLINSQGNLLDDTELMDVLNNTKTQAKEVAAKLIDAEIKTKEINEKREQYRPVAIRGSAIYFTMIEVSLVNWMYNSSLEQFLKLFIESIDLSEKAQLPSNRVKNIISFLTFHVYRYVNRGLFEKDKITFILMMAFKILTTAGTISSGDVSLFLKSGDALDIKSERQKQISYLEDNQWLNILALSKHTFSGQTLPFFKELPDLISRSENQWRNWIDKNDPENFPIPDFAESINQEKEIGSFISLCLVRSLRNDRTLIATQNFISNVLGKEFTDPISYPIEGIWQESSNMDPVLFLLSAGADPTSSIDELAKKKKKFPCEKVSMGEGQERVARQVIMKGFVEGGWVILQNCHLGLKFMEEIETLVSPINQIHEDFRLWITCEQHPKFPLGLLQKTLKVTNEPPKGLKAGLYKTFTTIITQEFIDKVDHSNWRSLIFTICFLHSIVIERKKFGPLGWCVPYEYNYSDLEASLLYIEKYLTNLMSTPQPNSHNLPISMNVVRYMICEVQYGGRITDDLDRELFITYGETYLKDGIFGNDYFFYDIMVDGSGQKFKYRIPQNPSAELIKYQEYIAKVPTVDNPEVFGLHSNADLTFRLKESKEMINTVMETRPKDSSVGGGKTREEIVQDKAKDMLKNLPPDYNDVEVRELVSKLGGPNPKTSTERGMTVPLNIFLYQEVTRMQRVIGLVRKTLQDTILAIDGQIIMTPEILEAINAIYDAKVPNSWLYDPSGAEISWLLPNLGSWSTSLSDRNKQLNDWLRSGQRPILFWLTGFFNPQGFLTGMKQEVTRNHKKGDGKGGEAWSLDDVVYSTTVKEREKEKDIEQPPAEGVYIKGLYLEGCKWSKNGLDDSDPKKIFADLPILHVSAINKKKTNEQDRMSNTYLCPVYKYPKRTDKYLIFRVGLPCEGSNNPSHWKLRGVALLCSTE

Regarding `Nc1ncnc2c1ncn2[C@@H]1O[C@H](COP(=O)(O)OP(=O)(O)O)[C@@H](O)[C@H]1O` [ADP], the “cryo-EM structure of OAD-MTD array” value in test [1] (setting [8]) is “Other motor domains have the same nucleotide binding states”; in test [2] (sites AAA3 and AAA4) it was “ATP in β-AAA2 and ADP in β-AAA3/AAA4 were unambiguously identified from the density”; in test [3] (setting [8]), “Other motor domains have the same nucleotide binding states”.

In the case of `Nc1ncnc2c1ncn2[C@@H]1O[C@H](COP(=O)(O)OP(=O)(O)OP(=O)(O)O)[C@@H](O)[C@H]1O` [ATP], the “cryo-EM structure of OAD-MTD array” value is “Other motor domains have the same nucleotide binding states” in test [1] (site AAA2 (same state as β-HC)); “ATP in β-AAA2 and ADP in β-AAA3/AAA4 were unambiguously identified from the density” in test [2] (site AAA2); “Other motor domains have the same nucleotide binding states” in test [3] (site AAA2 (same state as β-HC)). For the same molecule, in test [4], the “negative-stain EM of OAD coverage on MTD; microtubule gliding assay” value is recorded as “fell off the MTDs in the presence of ATP, ADP·Vi or ATPγS”.

For the molecule `Nc1ncnc2c1ncn2[C@@H]1O[C@H](COP(=O)(O)OP(=O)(O)OP(O)(O)=S)[C@@H](O)[C@H]1O` [ATPγS], the “negative-stain EM count of OAD array length / coverage on MTD” value in test [5] is “Using a titration of ATPγS, we were able to gradually shorten OAD arrays in vitro”.

In the case of B1, in test [6], the binding result is recorded as “binds”.

On to B2, for which the binding result in test [7] and in test [6] was “binds” each time.
